Measurements as given in patent publication US10201499B2, “Nanoparticle formulation” (United Kingdom Research and Innovation, priority 2012, dated 2019).

Test system: HT-29 cells
Details: 5 mM; p<0.01 vs control
Procedure: FIG. 20. Mitochondrial calorimetry. HT-29 cells were treated with acetate (5 mM) or without (Control) and assessed for ATP production by the Seahorse assay in vitro.

`CC(=O)O` [Acetate] was tested. Which ATP production did it give?
The ATP production was “significantly increase”.
